# Laboratory results as given in ChEMBL document CHEMBL1201862, “PubChem BioAssay data set” (2004).
# The source made the active and inactive calls. Cut-off read from the data, not from the text of the source, for most assays here: actives have a measured EC50 and inactives only a lower limit.
# Legend:
# [1] = cells; type: functional
# [2] = Trypanosoma cruzi growth suppression in host cells – NIH3T3 host cells, beta-gal luminescence, confirmation (AID 2044); type: functional, cell-based;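 note: intracellular parasites grown in NIH/3T3 mouse fibroblasts as host cells; luminescent beta-galactosidase reporter signal from transgenic T. cruzi replicating inside host cells; inhibitors lower the luminescence signal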
# [3] = NIH3T3 cell viability loss – ATP luminescence, mouse fibroblasts, counter-screen, dose response (AID 2010); type: functional, cell-based;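 note: cells exposed to compound for about 90 hours before reading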
# [4] = viability of uninfected HEp-2 cells – cell-based, HTS, cytotoxicity control for RSV inhibitor project, dose response (AID 2410); type: functional; settings: human respiratory syncytial virus
# [5] = target: T1, Heat shock factor protein 1 (Mus musculus, UniProt P38532); assay: enhancement of HSF1-driven luciferase signal – cell-based, NIH3T3, luminescence, dose retest, confirmation (AID 435004); type: functional;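 note: stress induced by proteasome inhibitor MG132 added 30 min after compound; luciferase reporter driven by HSF1 response element in NIH3T3 cells; actives raise luminescence as potentiators of the MG132 stress response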
# T1 sequence (P38532 whole entry): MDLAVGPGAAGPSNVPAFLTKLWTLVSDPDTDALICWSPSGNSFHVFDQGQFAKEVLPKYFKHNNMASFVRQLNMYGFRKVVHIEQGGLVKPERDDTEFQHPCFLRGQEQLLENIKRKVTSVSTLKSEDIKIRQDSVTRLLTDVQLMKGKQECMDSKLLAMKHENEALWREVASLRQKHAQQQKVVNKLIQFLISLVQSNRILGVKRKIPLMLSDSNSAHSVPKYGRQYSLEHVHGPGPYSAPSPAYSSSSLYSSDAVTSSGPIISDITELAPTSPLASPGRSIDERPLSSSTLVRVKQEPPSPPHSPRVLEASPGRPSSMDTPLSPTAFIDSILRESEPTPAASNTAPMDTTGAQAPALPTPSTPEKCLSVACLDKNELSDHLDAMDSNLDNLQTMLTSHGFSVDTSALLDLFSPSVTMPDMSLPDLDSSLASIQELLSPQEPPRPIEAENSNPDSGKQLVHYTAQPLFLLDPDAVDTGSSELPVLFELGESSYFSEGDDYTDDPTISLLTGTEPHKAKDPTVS
# [6] = Luminescence Cell-Based Dose Retest to Confirm Inhibitors of Cancer Stem Cells. [Related pubchem assays (depositor defined):AID2717, AID2721]; type: functional; settings: Homo sapiens
# [7] = system: Streptococcus; assay: GAS UMAA2166 growth inhibition – luminescence, BacTiterGlo, counter-screen for streptokinase expression inhibitor project, dose response (AID 1915); type: functional, organism-based;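 note: potency for reduction of bacterial viability or growth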
# [8] = system: Streptococcus sp. 'group A'; assay: Streptococcus pyogenes SK(-)GAS viability under kanamycin – luminescence, BacTiterGlo, confirmation, counter-screen for streptokinase expression inhibitor project, dose response (AID 1900); type: functional, organism-based
# [9] = Luminescence Cell-Based Dose Confirmation HTS to Identify Inhibitors of Platelet Dense Granule Release. [Related pubchem assays: 1663 (Primary HTS), 1678 (Summary of Project)]; type: functional
# [10] = target: Luciferin 4-monooxygenase (Photinus pyralis, UniProt P08659); assay: inhibition of purified Photinus pyralis luciferase – biochemical, luminescence, dose response (AID 1891)
# [11] = cells; type: functional, cell-based
# [12] = cells; type: functional, cell-based; remark: listed apart in the source
# [13] = target: Cytochrome P450 2C9 (Homo sapiens, UniProt P11712)
# [14] = target: T1, Heat shock factor protein 1; assay: decrease of HSF1-responsive luciferase luminescence – cell-based, NIH3T3, dose retest, confirmation (AID 2382); type: functional;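 note: NIH3T3 fibroblasts with HSF1-driven luciferase reporter stressed by proteasome inhibitor MG132; luminescence from HSF1-driven luciferase expression after 8 hours of MG132 stress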
# [15] = Luminescence Cell-Based Dose Response HTS to Identify Inhibitors of 5'UTR Stem-Loop Driven Prion Protein mRNA Translation in H4 Neuroglioblastoma Cells. [Related pubchem assays: 1827 (Project Summary), 1813 (Primary HTS)]; type: functional
# [16] = luciferase reporter signal suppression in cells – H4 neuroglioma cells, luminescence, dose response (AID 1990); type: functional, cell-based
# [17] = alpha-synuclein stem-loop luciferase translation blockers – H4 neuroglioma cells, luminescence, confirmation (AID 1988); type: functional, cell-based
# [18] = NIH-3T3 fibroblast cytotoxicity, dose response, cytotoxicity control, cell-based, fluorescence, Alamar Blue, secondary assay (AID 2327); type: functional;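 note: NIH-3T3 mouse fibroblasts cultured with fluconazole at 8 µg/mL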
# [19] = system: INS1; assay: INS-1E survival protection against cytokine death – cell-based, luminescence, retest, dose response (AID 449756); type: functional; settings: Rattus norvegicus;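 note: cell death triggered by IL-1 beta plus TNF-alpha plus IFN-gamma mixture; protective hits raise ATP signal compared with cytokine alone wells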
# [20] = HIV-1 AD8 envelope cell-cell fusion blockers – cherry-pick, dose response (AID 652062); type: functional, cell-based;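 note: luciferase signal from cell-cell fusion driven by HIV-1 clade B AD8 Env; potency is for inhibitors of fusion seen as a drop in luminescence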
# [21] = blockers of HIV-1 ZM109 envelope-driven cell-cell fusion – HeLa effector, CEM target cells, luciferase, cherry-pick, dose response (AID 652058); type: functional, cell-based;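 note: luciferase signal from HIV-1 Env mediated cell-cell fusion of effector and target cells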
# [22] = target: Paired box protein Pax-8 (Homo sapiens, UniProt Q06710); assay: PAX8 transcriptional activity inhibition in RMG-I – RMG-I cells, luciferase, cherry-pick, dose response (AID 687027); type: functional, cell-based;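 note: luciferase reporter driven by Pax8 target thyroperoxidase promoter measured by SteadyGlo luminescence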
# [23] = blockers of HIV-1 envelope-mediated cell-cell fusion – cherry-pick, dose response (AID 652057); type: functional, cell-based
# [24] = target: T2, Cytochrome P450 1A2 (Homo sapiens, UniProt P05177);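 note: PubChem cytochrome P450 panel assay, CYP1A2 panel member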
# T2 sequence (P05177 whole entry): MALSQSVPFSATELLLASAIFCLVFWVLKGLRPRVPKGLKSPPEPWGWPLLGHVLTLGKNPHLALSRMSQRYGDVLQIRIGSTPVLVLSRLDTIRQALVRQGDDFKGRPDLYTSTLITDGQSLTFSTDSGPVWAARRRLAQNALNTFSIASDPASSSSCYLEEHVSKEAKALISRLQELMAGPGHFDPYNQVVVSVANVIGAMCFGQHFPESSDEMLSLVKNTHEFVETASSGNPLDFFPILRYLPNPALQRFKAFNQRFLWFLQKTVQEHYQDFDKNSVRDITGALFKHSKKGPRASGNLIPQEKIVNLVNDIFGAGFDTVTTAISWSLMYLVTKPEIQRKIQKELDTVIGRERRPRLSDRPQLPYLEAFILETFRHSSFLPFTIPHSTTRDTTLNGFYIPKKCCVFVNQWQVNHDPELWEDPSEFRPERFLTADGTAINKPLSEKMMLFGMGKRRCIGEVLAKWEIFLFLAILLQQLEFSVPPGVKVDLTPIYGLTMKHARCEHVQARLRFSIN
# Chain of Luciferin 4-monooxygenase (P08659 whole entry): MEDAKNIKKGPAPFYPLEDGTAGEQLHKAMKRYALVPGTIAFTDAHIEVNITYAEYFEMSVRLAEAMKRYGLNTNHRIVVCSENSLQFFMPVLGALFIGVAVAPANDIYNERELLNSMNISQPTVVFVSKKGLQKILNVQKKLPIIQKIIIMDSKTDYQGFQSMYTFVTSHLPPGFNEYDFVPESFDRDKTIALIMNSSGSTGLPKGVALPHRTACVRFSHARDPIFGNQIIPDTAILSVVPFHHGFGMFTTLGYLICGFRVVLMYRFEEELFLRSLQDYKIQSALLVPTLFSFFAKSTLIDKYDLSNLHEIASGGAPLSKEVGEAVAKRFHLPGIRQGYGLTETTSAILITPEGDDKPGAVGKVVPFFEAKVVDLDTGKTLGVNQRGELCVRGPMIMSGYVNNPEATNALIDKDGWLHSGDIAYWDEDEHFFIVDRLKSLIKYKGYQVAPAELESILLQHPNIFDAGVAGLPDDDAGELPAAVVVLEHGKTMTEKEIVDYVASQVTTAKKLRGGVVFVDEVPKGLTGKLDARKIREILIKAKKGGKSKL
# Chain of Cytochrome P450 2C9 (P11712 whole entry): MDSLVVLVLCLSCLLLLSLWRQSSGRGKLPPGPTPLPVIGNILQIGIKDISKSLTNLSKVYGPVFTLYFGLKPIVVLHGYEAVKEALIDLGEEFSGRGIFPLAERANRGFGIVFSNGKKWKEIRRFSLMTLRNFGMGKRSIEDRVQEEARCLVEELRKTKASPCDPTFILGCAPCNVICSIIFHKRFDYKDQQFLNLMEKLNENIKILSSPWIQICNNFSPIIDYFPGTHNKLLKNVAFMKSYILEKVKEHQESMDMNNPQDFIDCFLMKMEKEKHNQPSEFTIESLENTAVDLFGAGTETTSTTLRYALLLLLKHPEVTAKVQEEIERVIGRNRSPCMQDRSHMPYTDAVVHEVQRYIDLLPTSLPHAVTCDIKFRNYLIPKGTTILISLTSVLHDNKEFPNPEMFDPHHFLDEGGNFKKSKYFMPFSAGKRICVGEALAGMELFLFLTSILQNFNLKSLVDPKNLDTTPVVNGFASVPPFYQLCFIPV
# Chain of Paired box protein Pax-8 (Q06710 whole entry, the tested form may be a part): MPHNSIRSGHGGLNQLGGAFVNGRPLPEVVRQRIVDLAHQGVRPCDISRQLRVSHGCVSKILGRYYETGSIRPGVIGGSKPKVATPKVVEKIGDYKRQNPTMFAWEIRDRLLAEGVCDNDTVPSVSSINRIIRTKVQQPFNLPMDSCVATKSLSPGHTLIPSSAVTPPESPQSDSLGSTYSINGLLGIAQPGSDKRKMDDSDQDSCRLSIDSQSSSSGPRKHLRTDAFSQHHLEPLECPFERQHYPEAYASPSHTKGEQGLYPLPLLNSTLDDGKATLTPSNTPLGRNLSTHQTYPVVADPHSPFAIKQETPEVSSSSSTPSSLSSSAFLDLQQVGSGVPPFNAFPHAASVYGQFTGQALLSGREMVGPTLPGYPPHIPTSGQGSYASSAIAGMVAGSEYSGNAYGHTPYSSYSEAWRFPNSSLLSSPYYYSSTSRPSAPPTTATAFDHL
smiles,measurement,setting,value
Cc1ccc(OCC(=O)OCc2c(C)noc2C)cc1C,IC50,[1],22.7 µM (active)
CC(C)(C)NCC1(CO)SC(N)=NC1=O (configuration not stated),IC50,[1],16.4 µM (active)
same,EC50,[2],3.82 µM (active)
same,EC50,[3],> 30 µM (not active)
Cc1ccc(C(=O)Nc2nc(C(C)(C)C)cs2)s1,CC50,[4],3.25 µM (active)
CCCN(CCC)C(S)=NC1CC2C=CC1C2 (configuration not stated),EC50,[5],> 260 µM (inactive)
O=C(Oc1ccccc1Cl)c1ccc2c(=O)n3c(nc2c1)CCC3,IC50,[1],5.48 µM (active)
C[C@@H]1CN([C@H](C)CO)C(=O)Cc2cc(NS(=O)(=O)c3ccc(Cl)cc3)ccc2O[C@H]1CN(C)Cc1ccc(C(F)(F)F)cc1,AC50,[6],3.11 µM (active)
CCOc1ccc(C(=O)Nc2ccc(S(=O)(=O)N3C[C@@H]4C[C@@H](C3)c3cccc(=O)n3C4)cc2)cc1,CC50,[4],23.7 µM (active)
O=C(NCc1ccc(F)cc1)C(=O)Nc1nc(C23CC4CC(CC(C4)C2)C3)cs1,EC50,[7],2.55 µM (active)
same,EC50,[8],823 nM (active)
same,AC50,[6],1.91 µM (active)
O=C(CSc1nnc(-c2c[nH]c3ccccc23)n1-c1ccc(F)cc1)NCc1ccco1,EC50,[5],40.4 µM (active)
CN(C)c1ccc(/C=C2\CCC/C(=C\c3ccccc3)C2=O)cc1,AC50,[6],3.81 µM (active)
COc1ccc(CCNC(=O)c2coc(=O)c(Br)c2)cc1,AC50,[6],7.39 µM (active)
Cc1nnc(N2CCC(C(=O)N3CCCCCC3)CC2)c2nn(-c3ccc(Cl)cc3)c(C)c12,CC50,[4],21.9 µM (active)
CC(=O)N1c2ccc(S(=O)(=O)N3CCCCC3)cc2CC1C(=O)Nc1ccccc1C(F)(F)F (configuration not stated),EC50,[9],> 112 µM (not active)
same,EC50,[10],> 112 µM (not active)
CCOC(=O)CC(=O)CSCC(=O)Nc1ccc(C)cc1,EC50,[5],> 260 µM (inactive)
COc1ccccc1N(CC(=O)NC1CCCCC1)S(C)(=O)=O,EC50,[11],> 350 µM (not active)
same,EC50,[12],> 350 µM (not active)
CN(CC(=O)Nc1cccc(F)c1)C(=O)c1ccc(-c2ccc(Cl)cc2)o1,CC50,[4],23.1 µM (active)
Cc1ccccc1CSc1nsc(N)n1,AC50,[13],2 µM (inconclusive)
same,EC50,[5],> 260 µM (inactive)
Cc1sc2ncnc(SCC(=O)N3CCCC3)c2c1C,EC50,[9],> 112 µM (not active)
same,EC50,[10],> 112 µM (not active)
O=C1C(=O)c2ccccc2C(O)=C1c1cccc([N+](=O)[O-])c1,CC50,[4],14.2 µM (active)
same,EC50,[11],> 350 µM (not active)
same,EC50,[12],56.5 µM (active)
CCOC(=O)c1cc2nc(-c3ccco3)cc(C(F)(F)F)n2n1,EC50,[9],> 112 µM (not active)
same,EC50,[10],> 112 µM (not active)
same,EC50,[14],> 195 µM (not active)
CC1=C(C(=O)OC2CCCC2)C(c2coc3ccccc3c2=O)C2=C(O)CC(C)(C)CC2=N1 (configuration not stated),AC50,[6],97.3 µM (active)
O=C(CN1CCN(S(=O)(=O)c2ccc3ccccc3c2)CC1)N1CCc2ccccc2C1,EC50,[15],23 µM (active)
same,EC50,[16],14.4 µM (active)
same,EC50,[17],> 120 µM (not active)
same,CC50,[4],25.3 µM (active)
COc1cccc(-c2cn3nc(C)c(C)nc3n2)c1,EC50,[9],6.72 µM (active)
same,EC50,[10],19.7 µM (active)
CCOC(=O)c1c(C)oc2ccc(NS(=O)(=O)c3ccc4c5c(cccc35)C(=O)N4)cc12,CC50,[4],7.08 µM (active)
O=C(Nc1cccc(Cl)c1)Nc1ccccc1C(=O)O,EC50,[9],11.4 µM (active)
same,EC50,[10],0.654 µM (active)
O=C(CSC1CS(=O)(=O)c2cc([N+](=O)[O-])ccc21)NNC(=O)c1ccc(Cl)cc1 (configuration not stated),EC50,[5],> 260 µM (inactive)
CCOC(=O)COc1c(-c2ccc(OC)cc2)oc2ccccc2c1=O,IC50,[1],5.55 µM (active)
O=C(O)c1ccccc1OC(C(=O)Nc1cc(Cl)cc(Cl)c1)c1ccccc1 (configuration not stated),EC50,[5],> 260 µM (inactive)
O=C(NN1C(=O)NC2(CCCCC2)C1=O)c1ccc(-c2ccc(Cl)cc2)o1,CC50,[4],22.3 µM (active)
CCOC(=O)c1c(S(=O)(=O)NCc2ccc(C)o2)c(C)n(C)c1C,EC50,[11],> 350 µM (not active)
same,EC50,[12],> 350 µM (not active)
COc1ccc(C(=O)NNc2ccccc2)cc1OC,EC50,[18],7.89 µM (active)
same,AC50,[6],0.825 µM (active)
CCc1ccc(-n2c(S)nnc2Cc2ccccc2)cc1,EC50,[9],> 112 µM (not active)
same,EC50,[10],> 112 µM (not active)
O=C(CSC1=N/C(=C/c2ccc(Cl)c(Cl)c2)C(=O)N1c1ccccc1F)NC1CC1,CC50,[4],24 µM (active)
Cc1cc(SCC(=O)c2cccs2)n2nc(C)c(-c3ccc(Cl)cc3)c2n1,AC50,[6],18.1 µM (active)
Cc1cccc2nc(CSc3nc4nncc-4c(O)n3-c3cccc(Cl)c3)cc(=O)n12,AC50,[19],8.23 µM (active)
CN(CC(=O)Nc1ccccc1Cl)CC(=O)Nc1c(F)cccc1F,EC50,[5],> 260 µM (inactive)
O=C(NCC1COc2ccccc2O1)c1cccc(S(=O)(=O)NCc2ccccc2)c1 (configuration not stated),AC50,[19],8.07 µM (active)
NC(=O)c1cc2cc(Br)ccc2o/c1=N\Cc1ccccc1,EC50,[5],> 260 µM (inactive)
C[C@H](CO)N1C[C@H](C)[C@@H](CN(C)C(=O)NC2CCCCC2)Oc2c(cccc2N(C)C)C1=O,AC50,[20],0.558 µM (active)
same,AC50,[21],36.3 µM (active)
COc1ccc(S(=O)(=O)Nc2ccc3c(c2)C(=O)N([C@H](C)CO)C[C@H](C)[C@@H](CN(C)Cc2ccc(C(F)(F)F)cc2)OCCCC[C@H](C)O3)cc1,AC50,[22],18.9 µM (active)
CN1C(=O)c2cc(NC(=O)c3cscn3)ccc2OC[C@@H]2O[C@H](CC(=O)NCc3ccc(Cl)c(Cl)c3)CC[C@H]21,AC50,[20],40.6 µM (active)
same,AC50,[21],6.62 µM (active)
same,AC50,[23],21 µM (active)
C[C@H]1CN([C@@H](C)CO)C(=O)Cc2cc(NC(=O)Nc3cccc4ccccc34)ccc2O[C@H]1CN(C)S(=O)(=O)c1ccc(F)cc1,AC50,[20],6.07 µM (active)
same,AC50,[21],7.77 µM (active)
same,AC50,[23],3.46 µM (active)
CC1(C)CC2CC(C)(CN2/C=N/c2sc3c(c2C#N)CC(C)(C)NC3(C)C)C1 (configuration not stated),AC50,[6],1.04 µM (active)
CN(C)c1ccc(/C=N/Nc2nncc3ccccc23)cc1,EC50,[9],2.37 µM (active)
same,EC50,[10],1.11 µM (active)
CCO/C(O)=C1\C(C)=Nc2ncnn2C1c1ccc2c(c1)OCO2 (configuration not stated),EC50,[5],> 260 µM (inactive)
CCCCc1ccc(/C(C)=N/Nc2cc(N3CCOCC3)nc(C)n2)cc1,EC50,[2],2.06 µM (active)
same,EC50,[3],> 60 µM (not active)
same,AC50,[6],3.08 µM (active)
CNc1c2c(nn1C)CCCC2 [TETRYDAMINE],EC50,[11],> 350 µM (not active)
same,AC50,[24],39.8 µM (inconclusive)
same,EC50,[12],> 350 µM (not active)
